By EC50 is commonly meant the concentration giving half of the maximal effect.

One assay has as its target T1, human TLR7 (Homo sapiens, UniProt Q9NYK1).
T1 construct: host or cells: HEK-Blue TLR7 cells (engineered human embryonic kidney cells)
T1 sequence (Q9NYK1 27-1049): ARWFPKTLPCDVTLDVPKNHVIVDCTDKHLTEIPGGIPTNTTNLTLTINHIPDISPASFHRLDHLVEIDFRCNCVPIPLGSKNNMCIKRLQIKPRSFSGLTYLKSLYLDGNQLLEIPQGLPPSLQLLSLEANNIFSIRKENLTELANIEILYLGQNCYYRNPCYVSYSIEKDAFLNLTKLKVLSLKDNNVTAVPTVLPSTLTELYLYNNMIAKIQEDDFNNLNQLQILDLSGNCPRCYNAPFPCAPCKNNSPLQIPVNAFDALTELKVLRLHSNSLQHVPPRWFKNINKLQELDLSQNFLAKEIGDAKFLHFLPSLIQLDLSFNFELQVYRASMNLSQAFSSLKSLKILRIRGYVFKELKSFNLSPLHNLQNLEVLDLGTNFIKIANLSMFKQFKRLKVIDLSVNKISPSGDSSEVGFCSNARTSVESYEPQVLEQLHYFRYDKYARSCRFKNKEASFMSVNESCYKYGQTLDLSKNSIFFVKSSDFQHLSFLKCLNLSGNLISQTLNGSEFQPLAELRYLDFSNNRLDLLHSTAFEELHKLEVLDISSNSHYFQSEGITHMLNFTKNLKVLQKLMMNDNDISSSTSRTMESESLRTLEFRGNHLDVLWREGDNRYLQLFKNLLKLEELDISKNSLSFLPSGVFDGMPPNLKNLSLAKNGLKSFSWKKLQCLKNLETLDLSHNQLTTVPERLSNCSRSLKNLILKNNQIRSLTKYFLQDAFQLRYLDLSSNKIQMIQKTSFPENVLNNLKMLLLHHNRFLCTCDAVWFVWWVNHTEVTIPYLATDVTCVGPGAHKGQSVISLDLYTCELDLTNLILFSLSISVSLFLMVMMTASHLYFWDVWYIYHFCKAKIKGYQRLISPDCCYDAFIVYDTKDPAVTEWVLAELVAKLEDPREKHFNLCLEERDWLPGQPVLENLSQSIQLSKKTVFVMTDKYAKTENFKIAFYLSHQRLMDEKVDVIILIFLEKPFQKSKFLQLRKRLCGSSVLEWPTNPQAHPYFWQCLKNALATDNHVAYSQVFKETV
The experiment in a line: Human TLR7 agonist activity assay (HEK-Blue TLR7 SEAP reporter). The assay is classed as cell-based. The note with it: HEK-Blue TLR7 cells, 18 h treatment, average where assay performed multiple times, read-out: hTLR7 Agonism EC50. Summed up: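 HEK-Blue TLR7 cells (15,000/well) treated with compound for 18 h at 37 °C, 5% CO2. Secreted SEAP measured with Quanti-Blue, 30 min, OD 620 nm. EC50 taken as concentration giving half-maximal response between baseline and maximum.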

For a further assay, the system named is CD69. The experiment in a line: Induction of CD69 in human whole blood. It counts as cell-based. The note with it: Homo sapiens, 17 h, 100% set to 1 uM of resiquimod, average where assay performed multiple times, read-out: hWB CD69 EC50. Here is the method: The induction of Type I interferon (IFN) MX-1 genes and the B-cell activation marker CD69 are downstream events that occur upon activation of the TLR7 pathway. The following is a human whole blood assay that measures their induction in response to a TLR7 agonist.
Heparinized human whole blood was harvested from human subjects and treated with test TLR7 agonist compounds at 1 mM. The blood was diluted with RPMI 1640 media and Echo was used to predot 10 nL per well giving a final concentration of 1 uM (10 nL in 10 uL of blood). After mixing on a shaker for 30 sec, the plates were covered and placed in a 37° C. chamber for o/n=17 hrs. Fixing/lysis buffer was prepared (5×->1× in H2O, warm at 37° C.; Cat #BD 558049) and kept the perm buffer (on ice) for later use.
For surface markers staining (CD69): prepared surface Abs: 0.045 ul hCD14-FITC (ThermoFisher Cat #MHCD1401)+0.6 ul hCD19-ef450 (ThermoFisher Cat #48-0198-42)+1.5 ul hCD69-PE (cat #BD555531)+0.855 ul FACS buffer. Added 3 ul/well, spin1000 rpm for 1 min and mixed on shaker for 30 sec, put on ice for 30 mins. Stop stimulation after 30 minutes with 70 uL of prewarmed 1× fix/lysis buffer and use Feliex mate to resuspend (15 times, change tips for each plate) and incubate at 37 C for 10 minutes.
Centrifuge at 2000 rpm for 5 minutes aspirate with HCS plate washer, mix on shaker for 30 sec and then wash with 70 uL in dPBS and pelleted 2×s (2000 rpm for 5 min) and 50 ul wash in FACS buffer pelleted 1×s (2000 rpm for 5 min). Mix on shaker for 30 sec. For Intracellular markers staining (MX-1): Add 50 ul of BD Perm buffer III and mix on shaker for 30 sec. Incubate on ice for 30 minutes (in the dark). Wash with 50 uL of FACS buffer 2×(spin @2300 rpm×5 min after perm) followed by mixing on shaker for 30 sec. Resuspended in 20 ul of FACS buffer containing MX1 antibody ( )(4812)-Alexa 647: Novus Biologicals #NBP2-43704AF647) 20 ul FACS bf+0.8 ul hIgG+0.04 ul MX-1. Spin 1000 rpm for 1 min, mix on shaker for 30 se and the samples were incubated at RT in the dark for 45 minutes followed by washing 2×FACS buffer (spin @2300 rpm×5 min after perm). Resuspend 20 ul (35 uL total per well) of FACS buffer and cover with foil and place in 4° C. to read the following day. Plates were read on iQuePlus. The results were loaded into toolset and IC50 curves are generated in curve master. The y-axis 100% is set to 1 uM of resiquimod.

With `COc1cc(C2CCN(C3CCOCC3)CC2)cnc1Cn1ncc2nc(N)nc(NCC3CC4(CC4)C3)c21` [Compound 157, 1-({3-methoxy-5-[1-(oxan-4-yl)piperidin-4-yl]pyridin-2-yl}methyl)-N7-({spiro[2.3]hexan-5-yl}methyl)-1H-pyrazolo[4,3-d]pyrimidine-5,7-diamine], the figures for the EC50 at human TLR7 and in the assay with CD69 were 50.8 nM and 37 nM, respectively.

In the case of `CCC[C@@H](CCO)Nc1nc(N)nc2cnn(Cc3cnc(C4CCN(C5CCOCC5)CC4)cc3OC)c12` [Compound 168, (3S)-3-{[5-amino-1-({4-methoxy-6-[1-(oxan-4-yl)piperidin-4-yl]pyridin-3-yl}methyl)-1H-pyrazolo[4,3-d]pyrimidin-7-yl]amino}hexan-1-ol], the EC50 was 6.8 nM on human TLR7 and 0.47 nM with CD69.

`CCC[C@@H](CCO)Nc1nc(N)nc2cnn(Cc3cnc(C4CCN(C(C)C)CC4)cc3OC)c12` [Compound 167, (3S)-3-{[5-amino-1-({4-methoxy-6-[1-(propan-2-yl)piperidin-4-yl]pyridin-3-yl}methyl)-1H-pyrazolo[4,3-d]pyrimidin-7-yl]amino}hexan-1-ol]: the EC50 on human TLR7 worked out at 9.4 nM; in the assay on CD69, 0.17 nM.

As for `CCCCNc1nc(N)nc2cnn(Cc3cc(F)c(N4CCN(C(=O)CN5CC(O)C5)CC4)cc3OC)c12` [Compound 199, 1-[4-(4-{[5-amino-7-(butylamino)-1H-pyrazolo[4,3-d]pyrimidin-1-yl]methyl}-2-fluoro-5-methoxyphenyl)piperazin-1-yl]-2-(3-hydroxyazetidin-1-yl)ethan-1-one], the EC50 on human TLR7 turned out to be 339 nM; with CD69 it was 1000 nM.

For the molecule `COc1cc(C2CCN(C3CCOCC3)CC2)cnc1Cn1ncc2nc(N)nc(NCc3cc(C)on3)c21` [Compound 141, 1-({3-methoxy-5-[1-(oxan-4-yl)piperidin-4-yl]pyridin-2-yl}methyl)-N7-[(5-methyl-1,2-oxazol-3-yl)methyl]-1H-pyrazolo[4,3-d]pyrimidine-5,7-diamine], the EC50 on human TLR7 was 73.2 nM; in the assay with CD69, 16.2 nM.

Consider `CCCCNc1nc(N)nc2cnn(Cc3ncc(C4=CC(C)(C)NC(C)(C)C4)cc3OC)c12` [Compound 169, N7-butyl-1-({5-methoxy-2′,2′,6′,6′-tetramethyl-1′,2′,3′,6′-tetrahydro-[3,4′-bipyridine]-6-yl}methyl)-1H-pyrazolo[4,3-d]pyrimidine-5,7-diamine], for which the results for the EC50 at human TLR7 and with CD69 were 496 nM and 121 nM, respectively.

As to `CCCCNc1nc(N)nc2cnn(Cc3ncc(C4CCN(C(=O)CN(C)C)CC4)cc3OC)c12` [Compound 128, 1-[4-(6-{[5-amino-7-(butylamino)-1H-pyrazolo[4,3-d]pyrimidin-1-yl]methyl}-5-methoxypyridin-3-yl)piperidin-1-yl]-2-(dimethylamino)ethan-1-one], the EC50 on human TLR7 is 48.4 nM; in the assay on CD69, 3.5 nM.

`CCC[C@@H](CCO)Nc1nc(N)nc2cnn(Cc3ncc(C4CCN(C5CC6(CNC6)C5)CC4)cc3OC)c12` [Compound 150, (3S)-3-[(5-amino-1-{[5-(1-{2-azaspiro[3.3]heptan-6-yl}piperidin-4-yl)-3-methoxypyridin-2-yl]methyl}-1H-pyrazolo[4,3-d]pyrimidin-7-yl)amino]hexan-1-ol]: the EC50 on human TLR7 came to 88.8 nM; in the assay on CD69 it was 44.1 nM.

In the case of `COc1cc(C2CCN(C(C)C)CC2)cnc1Cn1ncc2nc(N)nc(NCc3cc(C)on3)c21` [Compound 142, 1-({3-methoxy-5-[1-(propan-2-yl)piperidin-4-yl]pyridin-2-yl}methyl)-N7-[(5-methyl-1,2-oxazol-3-yl)methyl]-1H-pyrazolo[4,3-d]pyrimidine-5,7-diamine], the EC50 amounted to 43.3 nM at human TLR7 and 5.6 nM with CD69.

`CCC[C@@H](CCO)Nc1nc(N)nc2cnn(Cc3ncc(C4CCCN4)cc3OC)c12` (stereo partly drawn) [Compound 178, (3S)-3-[(5-amino-1-{[3-methoxy-5-(pyrrolidin-2-yl)pyridin-2-yl]methyl}-1H-pyrazolo[4,3-d]pyrimidin-7-yl)amino]hexan-1-ol]: the EC50 amounted to 279 nM at human TLR7 and 2 nM in the assay on CD69.

With `CCCCNc1nc(N)nc2cnn(Cc3ncc(C4CCN(C5CCS(=O)(=O)CC5)CC4)cc3OC)c12` [Compound 116, 4-[4-(6-{[5-amino-7-(butylamino)-1H-pyrazolo[4,3-d]pyrimidin-1-yl]methyl}-5-methoxypyridin-3-yl)piperidin-1-yl]-1λ^6-thiane-1,1-dione], the values for the EC50 on human TLR7 and with CD69 were 84.6 nM and 10.5 nM, respectively.

`CCC[C@@H](CCO)Nc1nc(N)nc2cnn(Cc3ncc(C4CCN(CCN(C)C)CC4)cc3OC)c12` [Compound 164, (3S)-3-({5-amino-1-[(5-{1-[2-(dimethylamino)ethyl]piperidin-4-yl}-3-methoxypyridin-2-yl)methyl]-1H-pyrazolo[4,3-d]pyrimidin-7-yl}amino)hexan-1-ol]: the EC50 was determined as 41 nM on human TLR7 and 3.9 nM with CD69.

Turning to `CCCCNc1nc(N)nc2cnn(Cc3ncc(C4CCN(C(=O)CN5CC6(CN(C)C6)C5)CC4)cc3OC)c12` [Compound 117, 1-[4-(6-{[5-amino-7-(butylamino)-1H-pyrazolo[4,3-d]pyrimidin-1-yl]methyl}-5-methoxypyridin-3-yl)piperidin-1-yl]-2-{6-methyl-2,6-diazaspiro[3.3]heptan-2-yl}ethan-1-one], the EC50 on human TLR7 was 856 nM; in the assay with CD69, 313 nM.

In the case of `CCCCNc1nc(N)nc2cnn(Cc3ncc(C4CCN(C5CCCC5)CC4)cc3OC)c12` [Compound 129, N7-butyl-1-{[5-(1-cyclopentylpiperidin-4-yl)-3-methoxypyridin-2-yl]methyl}-1H-pyrazolo[4,3-d]pyrimidine-5,7-diamine], the results for the EC50 at human TLR7 and with CD69 were 27.3 nM and 7.6 nM, respectively.

`CCC[C@@H](CCO)Nc1nc(N)nc2cnn(Cc3ncc(C4CCN(C(=O)CN(C)C)CC4)cc3OC)c12` [Compound 135, 1-(4-{6-[(5-amino-7-{[(3S)-1-hydroxyhexan-3-yl]amino}-1H-pyrazolo[4,3-d]pyrimidin-1-yl)methyl]-5-methoxypyridin-3-yl}piperidin-1-yl)-2-(dimethylamino)ethan-1-one]: the EC50 at human TLR7 is 41.4 nM; with CD69, 11.7 nM.

The record behind these values is patent US20230144824A1, “1H-PYRAZOLO[4,3-d]PYRIMIDINE COMPOUNDS AS TOLL-LIKE RECEPTOR 7 (TLR7) AGONISTS” (BRISTOL-MYERS SQUIBB COMPANY, priority 2020, published 2023).
